Results as given in PMC5851869 (Bioorganic & medicinal chemistry letters, 2018).

Assays:
pa-HemO = pa-HemO (Pseudomonas aeruginosa, UniProt O69002); assay: fluorescence quenching assay; type: binding; settings: for fold improvement in potency/affinity compared to compound 2: ratio of KD values relative to inhibitor 2
P. aeruginosa = type: cell-based, Pseudomonas aeruginosa; settings: statement covers both MIC50 and biofilm formation assays

Structure (SMILES)	fold improvement in potency/affinity compared to compound 2 (pa-HemO)	anti-bacterial effect (in words) (P. aeruginosa)	Kd (pa-HemO) [nM]
COc1cccc(/C=C2\SC(=S)N(CCC(=O)O)C2=O)c1 [compound 8]	~ 2 fold	–	–
CC(C)c1ccc(/C=C2\SC(=S)N(CCC(=O)O)C2=O)cc1 [compound 13]	5 fold	–	–
NCCN1C(=O)/C(=C/c2ccc(-c3ccccc3)cc2)SC1=S [compound 30]	–	did not have significant antibacterial activity	–
O=C1/C(=C/c2ccccn2)SC(=S)N1CCc1nnn[nH]1 [compound 3]	~2 fold	–	–
CN(C)CCN1C(=O)/C(=C\c2ccc(-c3ccccc3)cc2)SC1=S [compound 31]	–	did not have significant antibacterial activity	–
O=C(O)CCN1C(=O)/C(=C\c2ccc(-c3cccc(O)c3)o2)SC1=S [compound 27]	–	poor anti-bacterial effects	~1000
O=C(O)CCN1C(=O)/C(=C\c2ccc(-c3ccccc3)cc2)SC1=S [compound 18]	–	poor anti-bacterial effects	–
O=C(O)CCN1C(=O)/C(=C/c2ccc(Cl)cc2)SC1=S [compound 11]	> 3 fold	–	–
COc1ccc(/C=C2\SC(=S)N(CCC(=O)O)C2=O)cc1 [compound 9]	~ 2 fold	–	–
O=C(O)CCN1C(=O)/C(=C/c2cccc(Nc3ccccc3)c2)SC1=S [compound 21]	–	poor anti-bacterial effects	~1000
